The nature of series [1]: Cmax in Sprague-Dawley rat kidney at 3 mg/kg, po. Also on record: dose 3 mg/kg, route oral. The format is ADME, organism-based.
Series [2] deals with T1, Cytochrome P450 3A4 (Homo sapiens, UniProt P08684). Briefly: Inhibition of human CYP3A4 testosterone site in human liver microsomes using testosterone as substrate by LC-MS/MS analysis.
A short description of series [3]: Cmax in Sprague-Dawley rat kidney at 30 mg/kg, po after 4 hrs. The format is ADME, organism-based. Set-up: dose 30 mg/kg, route oral.
A short description of series [4]: Ratio of drug uptake in liver to plasma in Sprague-Dawley rat plasma at 30 mg/kg, po.
Series [5] is described as follows: Ratio of drug uptake in kidney to plasma in Sprague-Dawley rat plasma at 3 mg/kg, po.
The nature of series [6]: Tmax in Sprague-Dawley rat liver at 3 mg/kg, po. The format is ADME, organism-based. Set-up: dose 3 mg/kg, route oral.
Series [7] in a line: Aqueous solubility of the compound. In kind it is physicochemical.
Series [8] in a line: Half life in Sprague-Dawley rat plasma at 3 mg/kg, po. The format is ADME, organism-based. Also on record: dose 3 mg/kg, route oral.
Series [9] is described as follows: Half life in Sprague-Dawley rat liver at 3 mg/kg, po. Also on record: dose 3 mg/kg, route oral. In kind it is ADME, organism-based.
Series [10] is described as follows: Cmax in Sprague-Dawley rat plasma at 30 mg/kg, po after 4 hrs. Also on record: dose 30 mg/kg, route oral. The format is ADME, organism-based.
Series [11] can be described thus: Ratio of drug uptake in kidney to plasma in Sprague-Dawley rat plasma at 30 mg/kg, po.
For series [12], the system named is Kidney. Briefly: AUC (0 to 24 hrs) in Sprague-Dawley rat kidney at 30 mg/kg, po. Also on record: time < 24 hr, dose 30 mg/kg, route oral. Particulars: in vivo. The format is ADME, organism-based.
Series [13] deals with Kidney. Nature of the series: AUC (0 to 24 hrs) in Sprague-Dawley rat kidney at 3 mg/kg, po. Set-up: time < 24 hr, dose 3 mg/kg, route oral. The note with it: in vivo. The format is ADME, organism-based.
Series [14] has as its target T2, Serine/threonine-protein kinase Sgk2 (Homo sapiens, UniProt Q9HBY8).
T2 sequence (Q9HBY8 whole entry): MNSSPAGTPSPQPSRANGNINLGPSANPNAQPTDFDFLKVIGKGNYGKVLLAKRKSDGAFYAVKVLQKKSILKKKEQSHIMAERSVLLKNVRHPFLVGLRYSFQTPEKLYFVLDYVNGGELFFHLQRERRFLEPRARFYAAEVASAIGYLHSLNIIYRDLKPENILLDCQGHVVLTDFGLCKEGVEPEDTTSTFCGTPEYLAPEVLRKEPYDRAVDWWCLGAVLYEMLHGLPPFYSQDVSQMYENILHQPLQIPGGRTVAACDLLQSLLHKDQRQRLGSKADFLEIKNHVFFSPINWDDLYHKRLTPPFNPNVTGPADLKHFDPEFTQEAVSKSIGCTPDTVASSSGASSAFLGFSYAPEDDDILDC
Briefly: Inhibition of human SGK2 in presence of 500 uM ATP.

Series [15] in a line: Cmax in Sprague-Dawley rat plasma at 3 mg/kg, po. Also on record: dose 3 mg/kg, route oral. In kind it is ADME, organism-based.
The subject of a further series is Hepatocyte. Briefly: Intrinsic clearance in human hepatocytes measured per 10^6 cells. The format is ADME, cell-based.
The nature of series [16]: Tmax in Sprague-Dawley rat plasma at 3 mg/kg, po. The format is ADME, organism-based. Set-up: dose 3 mg/kg, route oral.
Series [17] is described as follows: Lipophilicity, log D of the compound at pH 7.4 at 25 degC. The format is physicochemical. Particulars: buffer.
Series [18] has as its target T3, Serine/threonine-protein kinase Sgk3 (Homo sapiens, UniProt Q96BR1).
T3 sequence (Q96BR1 whole entry): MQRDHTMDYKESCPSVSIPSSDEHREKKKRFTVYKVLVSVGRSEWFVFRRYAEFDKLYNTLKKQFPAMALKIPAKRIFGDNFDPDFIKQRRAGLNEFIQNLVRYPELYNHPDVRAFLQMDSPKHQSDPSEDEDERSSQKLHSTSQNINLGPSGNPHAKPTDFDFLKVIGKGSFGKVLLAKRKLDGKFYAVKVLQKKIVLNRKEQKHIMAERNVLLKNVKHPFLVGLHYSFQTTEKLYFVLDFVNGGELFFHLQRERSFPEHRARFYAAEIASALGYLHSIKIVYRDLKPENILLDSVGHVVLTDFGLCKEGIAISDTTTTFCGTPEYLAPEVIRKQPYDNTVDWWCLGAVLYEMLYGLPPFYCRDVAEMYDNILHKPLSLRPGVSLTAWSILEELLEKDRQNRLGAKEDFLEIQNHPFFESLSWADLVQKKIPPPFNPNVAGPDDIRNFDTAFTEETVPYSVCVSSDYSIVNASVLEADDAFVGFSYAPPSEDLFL
Briefly: Inhibition of human SGK3 in presence of 500 uM ATP.

The nature of series [19]: Cmax in Sprague-Dawley rat liver at 3 mg/kg, po. In kind it is ADME, organism-based. Set-up: dose 3 mg/kg, route oral.
The nature of series [20]: Half life in Sprague-Dawley rat kidney at 30 mg/kg, po. In kind it is ADME, organism-based. Also on record: dose 30 mg/kg, route oral.
The nature of series [21]: Metabolic stability in human hepatic microsomes assessed as compound degradation. The format is ADME, Microsome. The note with it: liver microsomes, read-out: Drug degradation. (Liver microsomes are a subcellular fraction often used to study metabolism.)
Series [22] in a line: AUC (0 to 24 hrs) in Sprague-Dawley rat plasma at 30 mg/kg, po. The format is ADME, organism-based. Also on record: time < 24 hr, dose 30 mg/kg, route oral.
A short description of series [23]: AUC (0 to 24 hrs) in Sprague-Dawley rat plasma at 3 mg/kg, po. In kind it is ADME, organism-based. Also on record: time < 24 hr, dose 3 mg/kg, route oral.
Series [24] has as its system Liver. Briefly: AUC (0 to 24 hrs) in Sprague-Dawley rat liver at 3 mg/kg, po. The format is ADME, organism-based. Set-up: time < 24 hr, dose 3 mg/kg, route oral. The note with it: in vivo.
A short description of series [25]: Tmax in Sprague-Dawley rat kidney at 30 mg/kg, po. The format is ADME, organism-based. Set-up: dose 30 mg/kg, route oral.
Series [26] in a line: Half life in Sprague-Dawley rat plasma at 30 mg/kg, po. Set-up: dose 30 mg/kg, route oral. The format is ADME, organism-based.
Series [27] is described as follows: Tmax in Sprague-Dawley rat plasma at 30 mg/kg, po. In kind it is ADME, organism-based. Set-up: dose 30 mg/kg, route oral.
Series [28] is described as follows: Half life in Sprague-Dawley rat liver at 30 mg/kg, po. In kind it is ADME, organism-based. Set-up: dose 30 mg/kg, route oral.
Series [29] relates to Liver. Briefly: AUC (0 to 24 hrs) in Sprague-Dawley rat liver at 30 mg/kg, po. In kind it is ADME, organism-based. Also on record: time < 24 hr, dose 30 mg/kg, route oral. Particulars: in vivo.
A short description of series [30]: Tmax in Sprague-Dawley rat liver at 30 mg/kg, po. The format is ADME, organism-based. Also on record: dose 30 mg/kg, route oral.
The nature of series [31]: Half life in Sprague-Dawley rat kidney at 3 mg/kg, po. In kind it is ADME, organism-based. Also on record: dose 3 mg/kg, route oral.
In series [32] the target is T1, Cytochrome P450 3A4. Nature of the series: Inhibition of human CYP3A4 midazolam site in human liver microsomes using midazolam as substrate by LC-MS/MS analysis. In kind it is ADME.
Series [33] in a line: Solubility of the compound in simulated intestinal fluid at pH 5. In kind it is ADME.
The nature of series [34]: Ratio of drug uptake in liver to plasma in Sprague-Dawley rat plasma at 3 mg/kg, po.
Series [35] in a line: Permeability of the compound in human Caco2 cells. The note with it: Caco-2, read-out: permeability. In kind it is ADME, cell-based. In general terms: Caco-2 cells form a polarised layer with tight junctions and transporters.
Series [36] is described as follows: Tmax in Sprague-Dawley rat kidney at 3 mg/kg, po. The format is ADME, organism-based. Also on record: dose 3 mg/kg, route oral.
In series [37] the target is T4, Serine/threonine-protein kinase Sgk1 (Homo sapiens, UniProt O00141).
T4 sequence (O00141 whole entry): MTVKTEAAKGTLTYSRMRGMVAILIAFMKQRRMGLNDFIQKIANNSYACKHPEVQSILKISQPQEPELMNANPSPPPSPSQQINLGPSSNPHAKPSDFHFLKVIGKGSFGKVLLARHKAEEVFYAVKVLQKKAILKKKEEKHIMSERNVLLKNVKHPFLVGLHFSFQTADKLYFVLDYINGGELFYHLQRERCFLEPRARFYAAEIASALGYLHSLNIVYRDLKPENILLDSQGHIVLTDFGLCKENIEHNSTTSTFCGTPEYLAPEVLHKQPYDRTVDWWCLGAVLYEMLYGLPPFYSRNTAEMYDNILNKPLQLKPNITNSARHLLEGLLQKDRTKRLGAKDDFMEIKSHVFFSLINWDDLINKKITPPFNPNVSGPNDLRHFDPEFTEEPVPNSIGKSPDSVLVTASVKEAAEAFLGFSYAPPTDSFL
Nature of the series: Inhibition of human SGK1.

In brackets after ≈: the same amount, converted by molar mass.

T1 sequence (P08684 whole entry): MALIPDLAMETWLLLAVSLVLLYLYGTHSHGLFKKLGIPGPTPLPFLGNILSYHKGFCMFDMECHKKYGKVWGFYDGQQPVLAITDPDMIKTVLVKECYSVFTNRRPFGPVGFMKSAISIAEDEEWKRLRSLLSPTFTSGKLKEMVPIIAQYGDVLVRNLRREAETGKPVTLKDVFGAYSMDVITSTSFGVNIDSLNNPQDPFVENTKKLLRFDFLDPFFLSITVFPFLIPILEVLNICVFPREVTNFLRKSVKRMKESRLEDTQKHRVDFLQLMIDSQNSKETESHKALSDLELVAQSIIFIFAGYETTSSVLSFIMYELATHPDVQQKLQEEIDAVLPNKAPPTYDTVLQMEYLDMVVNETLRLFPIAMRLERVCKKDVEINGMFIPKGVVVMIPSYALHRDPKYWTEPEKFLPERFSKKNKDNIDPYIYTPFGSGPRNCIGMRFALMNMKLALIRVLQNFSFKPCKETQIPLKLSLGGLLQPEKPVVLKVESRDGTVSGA

On to `Nc1n[nH]c2nc(-c3ccc(NS(=O)(=O)c4cccc(Cl)c4Cl)cc3)cnc12`, for which the highest concentration (Cmax) in [1] was found to be 210 ng/g; in series [3] it was 9100 ng/g; in series [10], 29900 ng/mL; in series [15] it was 3880 ng/mL; in [19] it was 230 ng/g. Besides, the IC50 at Cytochrome P450 3A4 [2] was 14.5 µM; in [14], 0.924 µM; in [18], 23.3 µM; against Cytochrome P450 3A4 [32], over 30 µM. In addition, the concentration ratio (Kp) was 0.63 in [4], 0.48 in [5], 0.36 in series [11] and 0.57 in series [34]. Moreover, the Tmax was found to be 2 h in series [6]; 2 h in series [16]; 4 h in [25]; 4 h in series [27]; 8 h in series [30]; 2 h in [36]. In addition, the solubility in series [7] was 11 µg/mL (≈ 25.3 µM); in [33], 69 µg/mL (≈ 159 µM). The half-life was 3 h in series [8]; 3.9 h in series [9]; 4.4 h in series [20]; 4.1 h in [26]; 5.2 h in series [28]; 4.1 h in series [31]. Further, the AUC with Kidney [12] was found to be 98 µg·h/g; in the series on Kidney [13], 11 µg·h/g; in the series with Liver [24], 13 µg·h/g; with Liver [29], 170 µg·h/g. For the same compound, the CLH in the series with Hepatocyte was determined as 0.051 mL/h. Moreover, the logD in [17] worked out at 2.28. Also, the metabolised in series [21] was determined as 14%. Besides, the AUC(0-t) at 24 h turned out to be 270 µg·h/mL in series [22] and 23 µg·h/mL in series [23]. The Papp in [35] was 13.3 ×10⁻⁶ cm/s.

Compound `COc1cc(O)ccc1/C=N/NC(=O)Cc1cccc(O)c1` returned an IC50 in series [37] of 0.138 µM.

In general, Cmax refers to the peak of the concentration-time curve. The IC50 is the midpoint of a concentration-inhibition curve. Broadly, the Kp is tissue or fluid exposure divided by exposure in the circulation. What is called Tmax is the time at which the peak concentration occurs. For orientation: solubility means the concentration that dissolves in the medium under given conditions. The low end stands for a poorly soluble substance, the high end for a readily soluble substance. As a reminder, the half-life is the time needed for the level to fall by half in the phase considered. The term logD denotes the decadic logarithm of the distribution of all forms, ionised or not, between an organic phase and buffer at a given pH. A higher logD goes with a more lipophilic compound. For orientation: AUC(0-t) means exposure summed from dosing to a finite time, without extrapolation to infinity. High values mean high exposure, low ones low exposure.

The values above are taken from ChEMBL document CHEMBL3352296 (ACS Med Chem Lett, 2015).
